# From US20080175813A1, “NOVEL ATTRACTANTS FOR VESPID WASPS” (PHEROTECH INTERNATIONAL INC., priority 2007, published 2008)
# Legend:
# Assay type in all cases: in vivo
# Vespula pennsylvanica [1] = test: Experiment 3: field trapping, wet vs dry apple pomace as supplements for heptyl butyrate; details: Experiment 3, N = 12, 21-22 Sep. 2006, 12 g apple pomace in mesh bag, suspended dry or immersed in capture water
# Protocol: The experiment ran from 21-22 Sep. 2006, at the same location as the first two experiments. All other experimental conditions were the same as above. Twelve replicates of three treatments were tested: 1) heptyl butyrate alone, 2) heptyl butyrate plus a mesh bag containing 12 g of apple pomace suspended dry from the trap lid along with the heptyl butyrate lure, and 3) heptyl butyrate plus 12 g of apple pomace in a mesh bag immersed in the water-detergent capture medium in the bottom of the interior chamber.
# Vespula pennsylvanica [2] = test: Experiment 4: field trapping, apple pomace vs apple juice as supplements for heptyl butyrate; details: Experiment 4, N = 12, set up 29 Sep. 2006, collections Sept 30, Oct 2, Oct 4; 5 g apple pomace; apple juice replacing capture water
# Description: A final 12-replicate experiment was set up as above, and compared wet apple pomace with apple juice. The three treatments were: 1) heptyl butyrate alone, 2) heptyl butyrate plus apple juice, and 3) heptyl butyrate plus apple pomace. In the second treatment, apple juice (Sun-Rype Products Ltd., Kelowna, B.C.) with 2-3 drops of detergent added replaced the water-detergent capture medium in the bottom of the interior trap chamber. In the third treatment, the amount of apple pomace in the plastic mesh bag immersed in the water-detergent capture medium in the bottom of the interior chamber was reduced to 5 g, which is a realistic operational dose. The experiment was set up on 29 Sep. 2006, and captured wasps were removed from the traps and counted on September 30, October 2 and October 4.
# Vespula pennsylvanica [3] = test: Experiment 1: field trapping in Oak Stump traps, chopped dried apples as supplement for heptyl butyrate; details: Experiment 1, N = 12, Oak Stump traps, 8-11 Sep. 2006, 12 g chopped dried apples in capture water
# Protocol: The experiment was run for 3 days in Tilbury Industrial Park in Delta, B.C. from 8-11 Sep. 2006. Large 2 L Oak Stump traps, with a single transverse entry tube, and 300-350 mL of water with 2-3 drops of liquid detergent added in the bottom of the interior chamber, were hung at eye level from trees or woody bushes. Traps for each of three treatments were deployed in 12 randomized complete blocks, with ≧5 m between traps. […] Almost all captured wasps were western yellowjackets, Vespula pennsylvanica. The very few Polistes spp. captured (no more than two per trap, with most traps having none) were not counted.
# Vespula pennsylvanica [4] = test: Experiment 2: field trapping, apple pomace vs chopped dried apples as supplements for heptyl butyrate; details: Experiment 2, N = 15, 15-18 Sep. 2006, 12 g supplement in plastic mesh in capture water
# Protocol: The experiment was run for 3 days in Tilbury Industrial Park in Delta, B.C. from 8-11 Sep. 2006. Large 2 L Oak Stump traps, with a single transverse entry tube, and 300-350 mL of water with 2-3 drops of liquid detergent added in the bottom of the interior chamber, were hung at eye level from trees or woody bushes. Traps for each of three treatments were deployed in 12 randomized complete blocks, with ≧5 m between traps. […] Experiment 2, with 15 replicates, was run at the same location as Experiment 1 from 15-18 Sep. 2006. […] The apple pomace was obtained from Agrisource Food Products Inc., Richmond, B.C.
structure (smiles),measurement,setting,value
"CCCCCCCOC(=O)CCC [Heptyl butyrate alone, heptyl butyrate]",MEAN NUMBER OF WASPS CAPTURED ± SE,Vespula pennsylvanica [1],9.8 ± 2.0 ab
same,MEAN NUMBER OF WASPS CAPTURED ± SE,Vespula pennsylvanica [2],24.3 ± 6.7 a
same,MEAN NUMBER OF WASPS CAPTURED ± SE,Vespula pennsylvanica [3],72.8 ± 13.9 b
same,MEAN NUMBER OF WASPS CAPTURED ± SE,Vespula pennsylvanica [3]; listed as heptyl butyrate,73
same,MEAN NUMBER OF WASPS CAPTURED ± SE,Vespula pennsylvanica [4],15.7 ± 3.4 ab
